Results taken from the supplement of paper PMC10307832.

Legend:
Test in all cases: relative viability (nuclei count vs DMSO), 5 days (fraction); higher = more cells survive
[1] = compound: C1=CC(=CC=C1C2=CC(=C(S2)NC(=O)N)C(=O)N)F [TPCA-1] + CC(=O)Nc1cccc(-n2c(=O)n(C3CC3)c(=O)c3c(Nc4ccc(I)cc4F)n(C)c(=O)c(C)c32)c1 [Trametinib] (partner 0.02 µM)
Summary of the method: (§1)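 Five library-drug doses in √10 steps were combined with a fixed anchor-drug dose, or a single drug was given alone, by pin tool to lung cancer cell lines in 1536-well plates the day after seeding. Nuclei were stained and counted after 5 days. Relative viability is the nuclei count in treated wells over that in vehicle wells, taken as the median of duplicate plates.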

[2] = compound: C[C@]12O[C@H](C[C@]1(O)CO)n1c3ccccc3c3c4c(c5c6ccccc6n2c5c31)CNC4=O [Lestaurtinib] + NC(=O)Nc1cc(-c2cccc(F)c2)sc1C(=O)N[C@H]1CCCNC1 [AZD7762] (partner 0.2 µM)
Summary of the method: as §1

[3] = compound: C1/C(=C\C2=CC=CS2)/C(=O)/C(=C/C3=CC=CS3)/C1 + CC(=O)Nc1cccc(-n2c(=O)n(C3CC3)c(=O)c3c(Nc4ccc(I)cc4F)n(C)c(=O)c(C)c32)c1 [Trametinib] (partner 0.02 µM)
Summary of the method: as §1

[4] = compound: C[C@]12O[C@H](C[C@]1(O)CO)n1c3ccccc3c3c4c(c5c6ccccc6n2c5c31)CNC4=O [Lestaurtinib] + O=C(c1cc(Cc2n[nH]c(=O)c3ccccc23)ccc1F)N1CCN(C(=O)C2CC2)CC1 [Olaparib] (partner 8 µM)
Summary of the method: as §1

Cell Line | relative viability ([1]; first compound 0.04 µM) | relative viability ([1]; first compound 0.1265 µM) | relative viability ([1]; first compound 0.4 µM) | relative viability ([1]; first compound 1.265 µM) | relative viability ([1]; first compound 4 µM) | relative viability ([2]; first compound 0.005 µM) | relative viability ([2]; first compound 0.01581 µM) | relative viability ([2]; first compound 0.05 µM) | relative viability ([2]; first compound 0.1581 µM) | relative viability ([2]; first compound 0.5 µM) | relative viability ([3]; first compound 0.2 µM) | relative viability ([3]; first compound 0.6325 µM) | relative viability ([3]; first compound 2 µM) | relative viability ([3]; first compound 6.325 µM) | relative viability ([3]; first compound 20 µM) | relative viability ([4]; first compound 0.005 µM) | relative viability ([4]; first compound 0.01581 µM) | relative viability ([4]; first compound 0.05 µM) | relative viability ([4]; first compound 0.1581 µM) | relative viability ([4]; first compound 0.5 µM)
201T | 0.717 | 0.729 | 0.691 | 0.733 | 0.751 | 0.589 | 0.656 | 0.53 | 0.92 | 0.776 | 0.708 | 0.704 | 0.736 | 0.708 | 0.706 | 0.89 | 0.712 | 0.882 | 0.937 | 0.552
A549 |  |  |  |  |  |  |  |  |  |  |  |  |  |  |  | 0.299 | 0.238 | 0.271 | 0.282 | 0.158
A-427 | 0.771 | 0.652 | 0.875 | 0.68 | 0.718 | 0.712 | 0.755 | 0.645 | 0.433 | 0.215 | 0.838 | 0.738 | 0.887 | 0.739 | 0.815 | 0.802 | 0.745 | 0.712 | 0.485 | 0.315
ABC-1 |  |  |  |  |  | 0.59 | 1.09 | 0.692 | 0.76 | 0.593 |  |  |  |  |  | 0.735 | 0.785 | 0.902 | 1.13 | 0.937
BEN | 1.04 | 0.736 | 1.18 | 1.39 | 1.04 | 0.674 | 0.818 | 0.634 | 0.625 | 0.341 | 1.01 | 1.11 | 1.04 | 1.05 | 0.977 | 1.24 | 1.07 | 1.1 | 0.853 | 0.521
CAL-12T | 0.326 | 0.331 | 0.345 | 0.358 | 0.254 | 0.573 | 0.813 | 0.557 | 0.599 | 0.54 | 0.376 | 0.365 | 0.316 | 0.261 | 0.307 | 0.837 | 0.767 | 0.877 | 0.802 | 0.344
COR-L23 | 0.715 | 0.512 | 0.713 | 0.547 | 0.33 |  |  |  |  |  | 0.553 | 0.575 | 0.674 | 0.508 | 0.633 | 0.374 | 0.428 | 0.37 | 0.339 | 0.156
COR-L 105 | 0.542 | 0.321 | 0.422 | 0.505 | 0.407 |  |  |  |  |  | 0.421 | 0.463 | 0.447 | 0.402 | 0.451 | 0.64 | 0.685 | 0.792 | 0.579 | 0.498
Calu-6 |  |  |  |  |  |  |  |  |  |  |  |  |  |  |  | 0.572 |  | 0.457 | 0.388 | 0.252
ChaGo-K-1 | 0.895 | 0.715 | 0.876 | 0.822 | 0.676 | 0.924 | 0.834 | 0.775 | 0.816 | 0.461 | 0.9 | 0.949 | 0.838 | 0.675 | 0.478 | 0.424 | 0.464 | 0.427 | 0.387 | 0.279
EBC-1 |  |  |  |  |  |  |  |  |  |  |  |  |  |  |  | 0.711 | 0.794 | 0.695 | 0.639 | 0.45
EKVX | 0.507 |  | 0.376 | 0.216 | 0.313 | 0.718 |  | 0.643 | 0.755 | 0.546 | 0.415 | 0.307 | 0.368 |  | 0.295 | 0.941 |  | 0.947 | 1.07 | 0.641
EMC-BAC-2 | 0.869 | 0.811 | 0.979 | 0.742 | 0.906 | 1.07 | 1.12 | 0.842 | 0.441 | 0.346 | 1 | 0.854 | 0.939 | 0.864 | 0.952 | 0.531 | 0.466 | 0.493 | 0.356 | 0.29
EPLC-272H | 0.324 | 0.22 | 0.329 | 0.332 | 0.265 | 0.153 | 0.219 | 0.119 | 0.225 | 0.27 | 0.333 | 0.263 | 0.3 | 0.243 | 0.267 | 0.58 | 0.53 | 0.503 | 0.359 | 0.108
H3255 | 0.728 | 0.545 | 0.62 | 0.596 | 0.519 | 0.961 | 0.945 | 0.866 | 0.879 | 0.543 | 0.644 | 0.583 | 0.596 | 0.446 | 0.666 | 0.563 | 0.535 | 0.54 | 0.525 | 0.397
HARA | 0.8 | 1.11 | 0.7 | 0.63 | 0.677 | 0.287 | 0.392 | 0.282 | 0.294 | 0.307 | 0.622 | 0.78 | 0.663 | 0.937 | 0.829 | 1.03 | 0.899 | 0.441 | 0.886 | 0.237
HCC-15 | 0.402 | 0.372 | 0.347 | 0.346 | 0.311 | 1.25 | 1.36 | 0.937 | 1.18 | 0.188 | 0.397 | 0.376 | 0.417 | 0.376 | 0.374 | 0.863 | 0.756 | 0.782 | 0.777 | 0.167
HCC-44 | 1.09 | 0.983 | 1.09 | 0.914 | 1.02 | 0.949 | 1.08 | 1.09 | 1.14 | 0.75 | 1.1 | 1.07 | 1.09 | 0.925 | 0.911 | 0.994 | 0.984 | 0.96 | 1.16 | 0.675
HCC-78 | 0.837 | 0.677 | 0.722 | 0.78 | 0.519 | 0.555 | 0.662 | 0.517 | 0.516 | 0.333 | 0.762 | 0.438 | 0.744 | 0.805 | 0.666 | 0.843 | 0.835 | 0.765 | 0.566 | 0.385
